ChEMBL document CHEMBL3400114, “The design, synthesis and biological evaluation of conformationally restricted 4-substituted-2,6-dimethylfuro[2,3-d]pyrimidines as multi-targeted receptor tyrosine kinase and microtubule inhibitors as potential antitumor agents” (Bioorg Med Chem, 2015)

Legend:
[1] = Antiproliferative activity against human SKOV3-MDR1-M6/6 cells overexpressing wild type beta3 tubulin after 48 hrs by sulforhodamine B assay; type: functional, cell-based; settings: SKOV3-MDR1-M6/6, 48 h
[2] = biological target: Epidermal growth factor receptor (Homo sapiens, UniProt P00533); type: cell-based, A-431
[3] = biological target: Vascular endothelial growth factor receptor 2 (Homo sapiens, UniProt P35968); type: cell-based, U-251
A-431 = assay: Antiproliferative activity against human A431 cells after 48 hrs by sulforhodamine B assay; type: functional, cell-based; settings: A-431, 48 h
[4] = biological target: Platelet-derived growth factor receptor beta (Homo sapiens, UniProt P09619); assay: Inhibition of PDGFR-beta in human U251 cells compound pretreated for 60 min before PDGF-BB stimulation for 10 mins by phosphotyrosine ELISA cytoblot method; type: cell-based, U-251
SNB-75 = assay: Growth inhibition of human SNB75 cells after 48 hrs by sulforhodamine B assay; type: functional; settings: SNB-75, 48 h
NCI-H460 = assay: Growth inhibition of human NCI-H460 cells after 48 hrs by sulforhodamine B assay; type: functional; settings: NCI-H460, 48 h
K562 = assay: Growth inhibition of human K562 cells after 48 hrs by sulforhodamine B assay; type: functional; settings: K562, 48 h
[5] = Growth inhibition of human PC3 cells after 48 hrs by sulforhodamine B assay; type: functional; settings: PC-3, 48 h
SF-268 = assay: Growth inhibition of human SF268 cells after 48 hrs by sulforhodamine B assay; type: functional; settings: SF-268, 48 h
SK-MEL-2 = assay: Growth inhibition of human SK-MEL-2 cells after 48 hrs by sulforhodamine B assay; type: functional; settings: SK-MEL-2, 48 h
[6] = Growth inhibition of human […] cells after 48 hrs by sulforhodamine B assay; type: functional
MDA-MB-435 [7] = assay: Antiproliferative activity against human MDA-MB-435 cells after 48 hrs by sulforhodamine B assay; type: functional, cell-based; settings: MDA-MB-435, 48 h
786-0 = assay: Growth inhibition of human 786-0 cells after 48 hrs by sulforhodamine B assay; type: functional; settings: 786-0, 48 h
KM12 = assay: Growth inhibition of human KM12 cells after 48 hrs by sulforhodamine B assay; type: functional; settings: KM12, 48 h
[8] = Growth inhibition of human EKVX cells after 48 hrs by sulforhodamine B assay; type: functional
HT-29 = assay: Growth inhibition of human HT-29 cells after 48 hrs by sulforhodamine B assay; type: functional; settings: HT-29, 48 h
[9] = Growth inhibition of human HOP92 cells after 48 hrs by sulforhodamine B assay; type: functional; settings: HOP-92, 48 h
NCI-H226 = assay: Growth inhibition of human NCI-H226 cells after 48 hrs by sulforhodamine B assay; type: functional; settings: NCI-H226, 48 h
[10] = Growth inhibition of human HCC2998 cells after 48 hrs by sulforhodamine B assay; type: functional; settings: HCC 2998, 48 h
CAKI-1 = assay: Growth inhibition of human Caki1 cells after 48 hrs by sulforhodamine B assay; type: functional; settings: CAKI-1, 48 h
M14 = assay: Growth inhibition of human M14 cells after 48 hrs by sulforhodamine B assay; type: functional; settings: M14, 48 h
NCI-H23 = assay: Growth inhibition of human NCI-H23 cells after 48 hrs by sulforhodamine B assay; type: functional; settings: NCI-H23, 48 h
CCRF-CEM = assay: Growth inhibition of human CCRF-CEM cells after 48 hrs by sulforhodamine B assay; type: functional
[11] = Growth inhibition of human LOXIMVI cells after 48 hrs by sulforhodamine B assay; type: functional; settings: LOX IMVI
[12] = Antiangiogenic activity in VEGF-165 and bFGF-stimulated chicken embryo chorioallantoic membrane assessed as inhibition of blood vessel formation after 40 hrs by microscopy; type: functional, tissue-based, Gallus gallus
[13] = Growth inhibition of human OVCAR5 cells after 48 hrs by sulforhodamine B assay; type: functional; settings: OVCAR-5, 48 h
[14] = Growth inhibition of human COLO205 cells after 48 hrs by sulforhodamine B assay; type: functional; settings: COLO 205, 48 h
HeLa [15] = assay: Resistance ratio of IC50 for human HeLa cells overexpressing wild type beta3 tubulin to IC50 for human HeLa cells; type: functional
[16] = Growth inhibition of human SF539 cells after 48 hrs by sulforhodamine B assay; type: functional; settings: SF-539, 48 h
[17] = Induction of microtubule depolymerization in rat A10 cells after 18 hrs by indirect immunofluorescence assay; type: cell-based
SR = assay: Growth inhibition of human SR cells after 48 hrs by sulforhodamine B assay; type: functional
[18] = Growth inhibition of human RXF393 cells after 48 hrs by sulforhodamine B assay; type: functional; settings: RXF 393, 48 h
[19] = Growth inhibition of human HCT15 cells after 48 hrs by sulforhodamine B assay; type: functional; settings: HCT-15, 48 h
HL-60(TB) = assay: Growth inhibition of human HL-60(TB) cells after 48 hrs by sulforhodamine B assay; type: functional; settings: HL-60, 48 h
MDA-MB-435 [20] = assay: Growth inhibition of human MDA-MB-435 cells after 48 hrs by sulforhodamine B assay; type: functional; settings: MDA-MB-435, 48 h
[21] = Growth inhibition of human OVCAR4 cells after 48 hrs by sulforhodamine B assay; type: functional; settings: OVCAR-4, 48 h
TK-10 = assay: Growth inhibition of human TK10 cells after 48 hrs by sulforhodamine B assay; type: functional; settings: TK-10, 48 h
[22] = Ratio of EC50 for microtubule depolymerization in rat A10 cells to IC50 for human MDA-MB-435 cells
MDA-MB-468 = assay: Growth inhibition of human MDA-MB-468 cells after 48 hrs by sulforhodamine B assay; type: functional; settings: MDA-MB-468, 48 h
DU-145 = assay: Growth inhibition of human DU145 cells after 48 hrs by sulforhodamine B assay; type: functional; settings: DU-145, 48 h
HOP-62 = assay: Growth inhibition of human HOP62 cells after 48 hrs by sulforhodamine B assay; type: functional; settings: HOP-62, 48 h
[23] = Growth inhibition of human BT549 cells after 48 hrs by sulforhodamine B assay; type: functional; settings: BT-549, 48 h
[24] = Antiproliferative activity against human SKOV3 cells overexpressing wild type beta3 tubulin after 48 hrs by sulforhodamine B assay; type: functional, cell-based; settings: SK-OV-3, 48 h
ACHN = assay: Growth inhibition of human ACHN cells after 48 hrs by sulforhodamine B assay; type: functional
MDA-MB-231 = assay: Growth inhibition of human MDA-MB-231 cells after 48 hrs by sulforhodamine B assay; type: functional; settings: MDA-MB-231, 48 h
SK-OV-3 [25] = assay: Resistance ratio of IC50 for human SKOV3-MDR1-M6/6 cells to IC50 for human SKOV3 cells; type: functional
SK-OV-3 [26] = assay: Growth inhibition of human SKOV3 cells after 48 hrs by sulforhodamine B assay; type: functional; settings: SK-OV-3, 48 h
[27] = Growth inhibition of human SF295 cells after 48 hrs by sulforhodamine B assay; type: functional; settings: SF-295, 48 h
U-251 = assay: Growth inhibition of human U251 cells after 48 hrs by sulforhodamine B assay; type: functional; settings: U-251, 48 h
MCF7 = assay: Growth inhibition of human MCF7 cells after 48 hrs by sulforhodamine B assay; type: functional; settings: MCF7, 48 h
HeLa [28] = assay: Antiproliferative activity against human HeLa cells overexpressing wild type beta3 tubulin after 48 hrs by sulforhodamine B assay; type: functional, cell-based
IGROV-1 = assay: Growth inhibition of human IGROV1 cells after 48 hrs by sulforhodamine B assay; type: functional; settings: IGROV-1, 48 h
[29] = Growth inhibition of human OVCAR3 cells after 48 hrs by sulforhodamine B assay; type: functional; settings: OVCAR-3, 48 h
[30] = Growth inhibition of human HCT116 cells after 48 hrs by sulforhodamine B assay; type: functional; settings: HCT-116, 48 h
SW-620 = assay: Growth inhibition of human SW620 cells after 48 hrs by sulforhodamine B assay; type: functional; settings: SW-620, 48 h
[31] = Growth inhibition of human UACC62 cells after 48 hrs by sulforhodamine B assay; type: functional; settings: UACC-62, 48 h
NCI-H522 = assay: Growth inhibition of human NCI-H522 cells after 48 hrs by sulforhodamine B assay; type: functional; settings: NCI-H522, 48 h
[32] = Growth inhibition of human Hs 578T cells after 48 hrs by sulforhodamine B assay; type: functional
SNB-19 = assay: Growth inhibition of human SNB19 cells after 48 hrs by sulforhodamine B assay; type: functional; settings: SNB-19, 48 h
SN12C = assay: Growth inhibition of human SN12C cells after 48 hrs by sulforhodamine B assay; type: functional
[33] = Growth inhibition of human UO31 cells after 48 hrs by sulforhodamine B assay; type: functional; settings: UO-31, 48 h
[34] = Growth inhibition of human MOLT4 cells after 48 hrs by sulforhodamine B assay; type: functional; settings: MOLT-4, 48 h
SK-MEL-5 = assay: Growth inhibition of human SK-MEL-5 cells after 48 hrs by sulforhodamine B assay; type: functional; settings: SK-MEL-5, 48 h
[35] = Growth inhibition of human OVCAR8 cells after 48 hrs by sulforhodamine B assay; type: functional; settings: OVCAR-8, 48 h
NCI/ADR-RES = assay: Growth inhibition of human NCI/ADR-RES cells after 48 hrs by sulforhodamine B assay; type: functional
Tubulin = Tubulin (Bos taurus, UniProt Q6B856+Q862L2+Q862F3); assay: Inhibition of bovine brain tubulin assembly

Sequence of Platelet-derived growth factor receptor beta (P09619 whole entry): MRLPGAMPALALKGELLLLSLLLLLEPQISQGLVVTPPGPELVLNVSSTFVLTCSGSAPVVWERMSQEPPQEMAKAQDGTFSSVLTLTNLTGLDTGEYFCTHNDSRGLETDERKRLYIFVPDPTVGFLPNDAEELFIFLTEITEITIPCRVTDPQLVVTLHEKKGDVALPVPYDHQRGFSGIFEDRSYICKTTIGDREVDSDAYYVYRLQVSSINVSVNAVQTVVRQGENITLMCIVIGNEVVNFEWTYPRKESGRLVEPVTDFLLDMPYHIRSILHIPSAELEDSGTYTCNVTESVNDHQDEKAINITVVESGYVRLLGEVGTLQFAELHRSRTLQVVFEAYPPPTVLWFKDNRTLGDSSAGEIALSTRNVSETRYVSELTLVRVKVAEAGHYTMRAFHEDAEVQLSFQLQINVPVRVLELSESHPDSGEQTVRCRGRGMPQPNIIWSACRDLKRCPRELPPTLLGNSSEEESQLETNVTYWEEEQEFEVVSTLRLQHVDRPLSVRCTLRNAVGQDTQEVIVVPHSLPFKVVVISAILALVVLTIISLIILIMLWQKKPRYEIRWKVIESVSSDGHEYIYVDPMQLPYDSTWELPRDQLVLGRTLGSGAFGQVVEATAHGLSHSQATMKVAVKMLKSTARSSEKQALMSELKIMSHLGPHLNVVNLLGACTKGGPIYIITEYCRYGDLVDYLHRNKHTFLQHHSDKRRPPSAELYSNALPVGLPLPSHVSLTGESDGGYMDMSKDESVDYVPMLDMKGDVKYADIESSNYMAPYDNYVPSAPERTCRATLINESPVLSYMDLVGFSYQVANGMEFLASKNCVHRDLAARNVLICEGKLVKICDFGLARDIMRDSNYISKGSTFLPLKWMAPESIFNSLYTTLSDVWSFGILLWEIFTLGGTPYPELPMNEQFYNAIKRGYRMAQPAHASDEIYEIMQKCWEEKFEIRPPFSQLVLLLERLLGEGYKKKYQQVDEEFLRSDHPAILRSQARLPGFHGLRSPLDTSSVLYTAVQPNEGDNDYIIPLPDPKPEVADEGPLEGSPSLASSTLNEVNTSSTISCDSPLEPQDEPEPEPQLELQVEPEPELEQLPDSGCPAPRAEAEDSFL
Sequence of Vascular endothelial growth factor receptor 2 (P35968 whole entry): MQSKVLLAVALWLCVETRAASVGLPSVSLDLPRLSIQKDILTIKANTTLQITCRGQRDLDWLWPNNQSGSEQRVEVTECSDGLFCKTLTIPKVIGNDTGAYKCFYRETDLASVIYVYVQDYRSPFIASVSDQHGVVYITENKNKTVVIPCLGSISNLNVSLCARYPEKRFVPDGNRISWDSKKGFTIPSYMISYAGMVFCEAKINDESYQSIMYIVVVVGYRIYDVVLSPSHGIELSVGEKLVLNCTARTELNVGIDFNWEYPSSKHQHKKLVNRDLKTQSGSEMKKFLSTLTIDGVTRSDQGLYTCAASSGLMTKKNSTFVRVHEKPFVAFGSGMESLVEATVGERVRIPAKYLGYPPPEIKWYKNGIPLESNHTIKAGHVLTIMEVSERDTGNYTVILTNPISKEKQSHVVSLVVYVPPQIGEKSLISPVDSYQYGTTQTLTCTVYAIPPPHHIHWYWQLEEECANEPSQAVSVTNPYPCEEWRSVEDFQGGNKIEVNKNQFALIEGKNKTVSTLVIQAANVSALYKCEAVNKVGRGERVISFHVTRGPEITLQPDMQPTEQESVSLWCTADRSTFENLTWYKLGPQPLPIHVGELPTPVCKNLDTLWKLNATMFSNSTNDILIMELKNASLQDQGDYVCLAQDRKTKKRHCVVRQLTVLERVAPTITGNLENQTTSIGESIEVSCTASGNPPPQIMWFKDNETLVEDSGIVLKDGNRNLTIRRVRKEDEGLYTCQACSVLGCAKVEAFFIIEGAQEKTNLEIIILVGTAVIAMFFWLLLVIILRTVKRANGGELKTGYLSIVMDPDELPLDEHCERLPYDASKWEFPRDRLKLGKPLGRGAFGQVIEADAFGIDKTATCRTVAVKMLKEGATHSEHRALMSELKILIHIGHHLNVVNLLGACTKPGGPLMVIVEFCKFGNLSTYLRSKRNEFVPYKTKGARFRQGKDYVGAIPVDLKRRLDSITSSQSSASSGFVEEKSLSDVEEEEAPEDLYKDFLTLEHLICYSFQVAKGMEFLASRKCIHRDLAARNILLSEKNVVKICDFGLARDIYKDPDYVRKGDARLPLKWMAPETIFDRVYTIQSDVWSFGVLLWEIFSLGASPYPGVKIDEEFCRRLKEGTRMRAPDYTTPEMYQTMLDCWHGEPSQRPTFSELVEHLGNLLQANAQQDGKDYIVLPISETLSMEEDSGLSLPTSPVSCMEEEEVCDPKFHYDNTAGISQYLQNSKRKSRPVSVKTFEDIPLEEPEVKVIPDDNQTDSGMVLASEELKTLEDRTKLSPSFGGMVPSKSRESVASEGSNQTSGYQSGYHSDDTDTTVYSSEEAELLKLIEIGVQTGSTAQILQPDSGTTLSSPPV
Sequence of Epidermal growth factor receptor (P00533 whole entry): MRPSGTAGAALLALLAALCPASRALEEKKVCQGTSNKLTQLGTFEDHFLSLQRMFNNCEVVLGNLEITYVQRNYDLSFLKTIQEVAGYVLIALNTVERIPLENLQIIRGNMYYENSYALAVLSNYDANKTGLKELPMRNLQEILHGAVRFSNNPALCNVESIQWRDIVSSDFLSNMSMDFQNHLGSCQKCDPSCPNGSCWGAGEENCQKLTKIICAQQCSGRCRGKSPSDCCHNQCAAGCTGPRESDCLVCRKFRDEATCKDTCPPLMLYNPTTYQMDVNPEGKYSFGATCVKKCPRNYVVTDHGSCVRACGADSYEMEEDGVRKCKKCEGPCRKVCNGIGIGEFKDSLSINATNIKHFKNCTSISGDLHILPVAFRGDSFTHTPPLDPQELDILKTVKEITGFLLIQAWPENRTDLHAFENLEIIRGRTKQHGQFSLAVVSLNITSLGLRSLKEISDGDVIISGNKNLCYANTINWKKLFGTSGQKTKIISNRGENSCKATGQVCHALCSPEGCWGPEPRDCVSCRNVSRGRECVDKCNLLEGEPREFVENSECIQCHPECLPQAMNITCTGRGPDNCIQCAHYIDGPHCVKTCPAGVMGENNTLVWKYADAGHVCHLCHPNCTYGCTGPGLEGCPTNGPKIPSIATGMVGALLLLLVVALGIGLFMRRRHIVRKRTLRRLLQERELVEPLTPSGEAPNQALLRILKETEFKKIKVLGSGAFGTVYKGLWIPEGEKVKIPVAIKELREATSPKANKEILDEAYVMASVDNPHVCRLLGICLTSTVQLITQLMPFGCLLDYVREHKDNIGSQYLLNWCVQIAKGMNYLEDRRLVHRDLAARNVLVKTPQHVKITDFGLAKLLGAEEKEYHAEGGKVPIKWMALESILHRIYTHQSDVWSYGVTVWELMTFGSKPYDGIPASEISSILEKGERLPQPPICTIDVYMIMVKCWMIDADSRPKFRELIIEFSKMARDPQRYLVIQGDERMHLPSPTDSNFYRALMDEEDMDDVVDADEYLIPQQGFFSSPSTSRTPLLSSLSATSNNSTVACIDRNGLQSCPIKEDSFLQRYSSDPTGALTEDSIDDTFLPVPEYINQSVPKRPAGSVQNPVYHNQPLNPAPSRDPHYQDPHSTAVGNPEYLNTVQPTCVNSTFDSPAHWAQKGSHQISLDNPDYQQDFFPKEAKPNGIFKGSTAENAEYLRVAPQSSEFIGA

## CCOc1ccc(N(C)c2nc(C)nc3oc(C)cc23)cc1
[1]
  IC50: 30.8 nM
[2]
  IC50: > 500 nM
[3]
  IC50: 121 nM
A-431
  IC50: 92.9 nM
[4]
  IC50: 132 nM

## Cc1nc(N(C)c2ccc3occc3c2)c2cc(C)oc2n1
SNB-75
  GI50: 103 nM
NCI-H460
  GI50: 138 nM
K562
  GI50: 40.4 nM
[5]
  GI50: 183 nM
SF-268
  GI50: 527 nM
SK-MEL-2
  GI50: 82.4 nM
[6]
  GI50: 389 nM
MDA-MB-435 [7]
  IC50: 133 nM
786-0
  GI50: 1040 nM
KM12
  GI50: 58.4 nM
[8]
  GI50: 396 nM
HT-29
  GI50: 51.9 nM
[9]
  GI50: 226 nM
NCI-H226
  GI50: 217 nM
[10]
  GI50: 185 nM
CAKI-1
  GI50: 57.9 nM
M14
  GI50: 47.3 nM
NCI-H23
  GI50: 206 nM
[1]
  IC50: 509 nM
CCRF-CEM
  GI50: 121 nM
[11]
  GI50: 162 nM
[12]
  IC50: 15200 nM
[13]
  GI50: 531 nM
[14]
  GI50: 139 nM
HeLa [15]
  Ratio IC50: 0.8
[16]
  GI50: 60.9 nM
[17]
  EC50: 3790 nM
SR
  GI50: 62.4 nM
[18]
  GI50: 57.2 nM
[19]
  GI50: 51.9 nM
HL-60(TB)
  GI50: 41.2 nM
MDA-MB-435 [20]
  GI50: 21.1 nM
[21]
  GI50: 553 nM
TK-10
  GI50: 382 nM
[22]
  Ratio: 28
MDA-MB-468
  GI50: 31.5 nM
DU-145
  GI50: 198 nM
HOP-62
  GI50: 75.2 nM
[23]
  GI50: 432 nM
[24]
  IC50: 425 nM
ACHN
  GI50: 265 nM
MDA-MB-231
  GI50: 223 nM
SK-OV-3 [25]
  Ratio IC50: 1.2
SK-OV-3 [26]
  GI50: 98 nM
[27]
  GI50: 41.7 nM
U-251
  GI50: 84 nM
MCF7
  GI50: 43.8 nM
A-431
  IC50: 73.2 nM
HeLa [28]
  IC50: 243 nM
IGROV-1
  GI50: 142 nM
[29]
  GI50: 30 nM
[30]
  GI50: 77.1 nM
SW-620
  GI50: 58.8 nM
[31]
  GI50: 57.1 nM
NCI-H522
  GI50: 29.9 nM
[32]
  GI50: 51.7 nM
SNB-19
  GI50: 93.6 nM
SN12C
  GI50: 611 nM
[33]
  GI50: 278 nM
[34]
  GI50: 211 nM
SK-MEL-5
  GI50: 50.4 nM
[35]
  GI50: 330 nM
NCI/ADR-RES
  GI50: 37.6 nM

## COc1ccc(N(C)c2nc(C)nc3oc(C)cc23)cc1
Tubulin
  IC50: 2400 nM
[17]
  EC50: 103 nM
